Experimental data published in article PMC9108871 (Frontiers in Plant Science, 2022).

How the values were obtained:
[1] = tested on: ALDH (aldehyde dehydrogenase; ALDH2); assay: ALDH activity kit (Abcam), absorbance […] nm (NADH standard), Lineweaver-Burk; assay type: biochemical, Citrus sinensis; settings: no Effector 3; incubation 1 h; varied substrate acetaldehyde (Methods)
[2] = tested on: GH17 (Glycosyl Hydrolase family 17); assay: beta-glucosidase kit (MAK129), absorbance […] nm, Lineweaver-Burk; assay type: biochemical, Citrus sinensis; settings: K-phosphate 100 mM, pH 6.5, 37°C, 20 min; no LasP235; substrate taken from Methods

Structure (SMILES) | Km [1] | Km [2]
CC=O [acetaldehyde] | 2130 µM | 
O=[N+]([O-])c1ccc(O[C@@H]2O[C@H](CO)[C@@H](O)[C@H](O)[C@H]2O)cc1 [p-nitrophenyl-β-D-glucopyranoside] |  | 42 µM
